Tests used:
VX2 tumor = experiment: Oral administration of 3-BrPA in the VX2 liver tumor rabbit model; assay type: in vivo, New Zealand White rabbits
Protocol: New Zealand White rabbits were used in the study. All rabbits, carriers and recipients, were anesthetized with a mixture of acepromazine (2.5 mg/kg; Phoenix, St. Joseph, Mo.) and ketamine hydrochloride (44 mg/kg; Phoenix) administered intramuscularly. The VX2 tumor cell suspension was first injected into the hind legs of carrier rabbits and grown for 2 weeks. Resultant tumors were harvested from each carrier and a tumor suspension was prepared from each harvested tumor by dissection of viable tumor tissue and aseptic mincing.
For the rabbits that were going to receive the VX2 tumor implanted in the liver, intravenous access was gained via a marginal ear vein and 0.1-0.2 ml (2.5-5 mg) of sodium pentobarbital (Abbott Laboratories, Abbott Park, Ill.) was given periodically to maintain anesthesia. The abdomen of each recipient rabbit was shaved and disinfected with ethanol and povidine iodine. The liver of the rabbit was exposed by a midline incision, then an aliquot of the tumor cell suspension (0.2 ml) was injected directly using a 21-gauge angiocatheter into the left lobe of the liver in order to develop a solitary lesion with adequate surrounding liver parenchyma. The abdomen was closed in two layers. The tumor was allowed to grow in the rabbit livers for 7 days. Pain and distress levels were assessed by daily by monitoring food intake, feces and urine production and finally checking for signs of guarding or reluctance to move when touched.
Oral administration of 3-BrPA dissolved in PBS was examined using the VX2 tumor model, an animal model for hepatocellular carcinoma (described above). VX2 tumors were allowed to grow the livers of 12 New Zealand White rabbits for 10 days. Tumor bearing rabbits were divided in 4 groups. Group 1 (n=3) received 5 mg of 3-BrPA in 2.75 ml of Phosphate Buffered Saline (PBS) orally once a day, group 2 (n=3) received 10 mg of 3-BrPA in 2.75 ml of PBS orally once a day, group 3 (n=3) received 50 mg of 3-BrPA in 2.75 ml of PBS orally once a day and group 4 (control, n=3) received no treatment. Median survival for the animals in group 1 (n=3), receiving 5 mg of 3-BrPA in 2.75 ml of PBS, was 66 days. Animals in group 2 (n=3), receiving 10 mg of 3-BrPA in 2.75 ml of PBS, survived for 70 days. All the animals in group 3 (n=3), receiving 50 mg of 3-BrPA in 2.75 ml of PBS expired within 24 hours of oral administration of the first dose.
To test whether buffering 3-BrPA with NaHCO3 would allow oral administration of a higher dose of 3-BrPA, the maximum tolerated dose of orally administered 3-BrPA dissolved in NaHCO3 was determined. As in Example 1, the VX2 tumor model was used, with VX2 tumors grown in the livers of 12 New Zealand White rabbits for 10 days. Once again, the tumor bearing rabbits were divided in 4 groups. […] All animals in group 3 (n=3) expired within 24 hours after receiving 1000 mg of 3-BrPA in 2.75 ml of NaHCO3 orally.
The effect of pH on the survival of rabbits bearing VX2 liver tumors that were treated with the MTD of 3-BrPA buffered with NaHCO3 was examined. The VX2 tumor model was once again used, as described above. A total of 20 New Zealand White rabbits were included in the study. All rabbits received VX2 tumor implantation as described above. The tumor was allowed to grow in the rabbit livers for 7 days. Rabbits were divided in 4 groups. Group 1 (n=6) received 500 mg of 3-BrPA in 2.75 ml of NaHCO3 (1 M, resulting in pH 4), group 2 (n=2) received 500 mg of 3-BrPA in 2.75 ml of PBS (resulting in pH<2), group 3 (n=6) received 500 mg of 3-BrPA in 2.75 ml of NaHCO3 (2 M, resulting in pH 7) and group 4 (n=6) received no treatment (control group). All drugs were administered orally once a day.

[1] = system: Hep3B, HepG2, SK-Hep1 and VX2 cells; experiment: Active caspase-3 western blot; assay type: cell-based; settings: all four cell lines; 100, 150, 200 μM
Protocol: The apoptosis of 3-BrPA treated cells was evaluated using Annexin V staining and the formation of active caspase-3. Cells treated with 3-BrPA were stained with anti-Annexin V and analyzed by flow cytometry as well as fluorescent microscopy. Flow cytometry was performed using a Becton-Dickinson FACSCalibur. The gating was done based on unstained control cells, Annexin V—PE stained and 7-AAD stained control cells. For fluorescent microscopy, Annexin V staining was performed using Annexin V staining Microscopy kit (BD Biosciences, USA) according to the protocol recommended by the manufacturer. In brief, cells grown in chambered slides were treated with either 3BrPA or the vehicle, washed once with ice-cold PBS followed by two washes with binding buffer, at the end of the treatment period. Cells were then incubated with the FITC-conjugated Annexin V fluorescent antibody for 15 min followed by a gentle wash. The cells were kept in binding buffer and images were observed captured using a Zeiss Axiovert 200 Microscope (Carl Zeiss Microimaging Inc., USA). Active caspase-3, an apoptotic marker, was identified by western blot analysis. Lysates prepared from equal numbers of cells treated with different concentrations of 3BrPA were subjected to SDS-PAGE electrophoresis and immunoblotting against active (cleaved) caspase-3. […]

[2] = General toxicology studies, oral NaHCO3-buffered 3-BrPA; assay type: in vivo, nude mice; settings: 100 and 200 mg/kg/day oral, single dose to 3-months of daily dosing
Protocol: General toxicology studies were conducted on nude mice that were orally administered NaHCO3-buffered 3-BrPA at doses of 0, 100 and 200 mg/kg/day. The duration of exposure in this study ranged from a single dose to 3-months of daily dosing. […] 3-BrPA treatment had no effect on body weight.

[3] = MTD of 3-BrPA buffered with 2.75 ml of NaHCO3
[4] = MTD of 3-BrPA buffered with NaHCO3

O=C(O)C(=O)CBr [3-BrPA, 3-bromopyruvate]
Median survival (VX2 tumor; 5 mg of 3-BrPA in 2.75 ml of PBS orally once a day): 66 days | Survival (VX2 tumor; 10 mg of 3-BrPA in 2.75 ml of PBS orally once a day): 70 days | Median survival (VX2 tumor; 50 mg of 3-BrPA in 2.75 ml of NaHCO3 (1M) orally once a day): 60 days | Time to death after first oral dose (all animals expired) (VX2 tumor; 50 mg of 3-BrPA in 2.75 ml of PBS orally): ≤ 24 h | Animal survival, Kaplan Meier analysis (VX2 tumor; 500 mg in 2.75 ml of NaHCO3 (1 M, resulting in pH 4), orally once a day, compared to groups 2, 3 and 4): significant survival benefit | Median survival time (VX2 tumor; 500 mg of 3-BrPA in 2.75 ml of NaHCO3 orally once a day): 100 days | Outcome of unbuffered 3-BrPA (VX2 tumor; 500 mg, unbuffered, pH<2, oral): immediate death | Time to death (all animals expired) (VX2 tumor; 1000 mg of 3-BrPA in 2.75 ml of NaHCO3 orally): ≤ 24 h | Survival longer than rabbits that did not receive 3-BrPA (VX2 tumor; [3]): 79% | Survival longer than rabbits treated with the MTD of 3-BrPA buffered with PBS (VX2 tumor; [3]): 42% | Cause of death (VX2 tumor; [4]): died of aspiration | Mean liver tumor size (VX2 tumor; [4]): < 0.5 cm | Metastases on pathology (VX2 tumor; [4]): no metastases | Mean liver tumor size (VX2 tumor; all other groups): > 8 cm | Metastases on pathology (VX2 tumor; all other rabbits): widespread metastases | Increase of MTD compared to the MTD of 3-BrPA in PBS (VX2 tumor; buffered with 2.75 ml of 1M NaHCO3): 50 fold | Maximum tolerated dose (MTD) (VX2 tumor; buffered with 2.75 ml of 1M NaHCO3, oral): 500 mg | Effectiveness as a cancer therapeutic (VX2 tumor; buffering conditions that resulted in a pH>6 (500 mg in 2 M NaHCO3, pH 7)): less effective | Maximum tolerated dose (MTD) (VX2 tumor; dissolved in 2.75 ml of PBS, oral): 10 mg | Caspase-3 activation (immunoblot) [1]: dose dependent increase | Clinical symptoms [2]: did not exhibit any treatment related clinical symptoms | Effect on body weight [2]: no effect | Mortality [2]: no mortalities | Organ weights, gross pathology and histopathology [2]: did not show any treatment-related changes

From US10130598B2, “Methods and compositions for administration of 3-halopyruvate and related compounds for the treatment of cancer” (The Johns Hopkins University, priority 2008, dated 2018)
